# In patent US20040019082A1, “Reversible infertility in male mice following oral administration of alkylated imino sugars: a non-hormonal approach to male contraception” (United Therapeutics Corporation, priority 2002, published 2004):
# Assays:
# male C57BL/6 mice = test: Mating assay, fertility of male mice; assay type: in vivo, mouse
# Source text: Treatment of mice—Male C57BL/6 mice were housed under standard non-sterile conditions. The mice were provided with water ad lib. and prior to drug administration were fed a diet of pelleted mouse chow (expanded Rat and Mouse Chow 3, SDS Ltd.) To administer the compounds of the present invention, the mice were fed a diet of powdered mouse chow (expanded Rat and Mouse Chow 1, ground, SDS Ltd.) containing either NB-DNJ, NB-DGJ, NN-6-MeDGJ, or DNJ. The diet and compound (both as dry solids) were mixed thoroughly, stored at room temperature, and used within 7 days of mixing.
# Mating assays—To assess the fertility of male mice that were fed on a diet containing an iminosugar, a mating assay was used: typically six week old male C57BL/6 mice in groups of three were administered diet containing compound for five weeks (unless otherwise specified), after which each of them was caged with four untreated female C57BL/6 mice, and provided with standard pelleted chow. Females were at least 11 weeks old, and age-matched in each experiment. The male was removed from the females after 7 or 9 days, depending on the experiment; the females were monitored for vaginal mucous plugs, pregnancies, and, if any, litter sizes. To study any effect on female fertility six-week-old female C57BL/6 mice were treated with NB-DNJ for five weeks, after which each of them was caged with a non-treated age-matched male for four days.
# [1] = system: testosterone, luteinising and follicle-stimulating hormones; test: Endocrinological assays; assay type: in vivo, mouse
# Procedure: Endocrinological assays—Following termination of mice by asphyxiation in CO2 and cervical dislocation, blood was obtained via cardiac puncture, which was allowed to clot at room temperature (RT). Serum was obtained by centrifugation, and stored at −80° C. until use. Testosterone, luteinising and follicle-stimulating hormones were measured by methods well-known in the art (Huhtaniemi, I., Nikula, H. & Rannikko, S. (1985) J Clin Endocrinol Metab 61, 698-704; Haavisto, A. M., Pettersson, K., Bergendahl, M., Perheentupa, A., Roser, J. F. & Huhtaniemi, I. (1993) Endocrinology 132, 1687-91; van Casteren, J. I., Schoonen, W. G. & Kloosterboer, H. J. (2000) Biol Reprod 62, 886-94.)
# [2] = Body, gonad and organ weights of treated mice; assay type: in vivo, mouse
# alpha-glucosidase 1 = target: T1, alpha-glucosidase 1 (Homo sapiens, UniProt Q13724); settings: involved in N-glycan synthesis; cited from earlier work
# T1 sequence (Q13724 1-837): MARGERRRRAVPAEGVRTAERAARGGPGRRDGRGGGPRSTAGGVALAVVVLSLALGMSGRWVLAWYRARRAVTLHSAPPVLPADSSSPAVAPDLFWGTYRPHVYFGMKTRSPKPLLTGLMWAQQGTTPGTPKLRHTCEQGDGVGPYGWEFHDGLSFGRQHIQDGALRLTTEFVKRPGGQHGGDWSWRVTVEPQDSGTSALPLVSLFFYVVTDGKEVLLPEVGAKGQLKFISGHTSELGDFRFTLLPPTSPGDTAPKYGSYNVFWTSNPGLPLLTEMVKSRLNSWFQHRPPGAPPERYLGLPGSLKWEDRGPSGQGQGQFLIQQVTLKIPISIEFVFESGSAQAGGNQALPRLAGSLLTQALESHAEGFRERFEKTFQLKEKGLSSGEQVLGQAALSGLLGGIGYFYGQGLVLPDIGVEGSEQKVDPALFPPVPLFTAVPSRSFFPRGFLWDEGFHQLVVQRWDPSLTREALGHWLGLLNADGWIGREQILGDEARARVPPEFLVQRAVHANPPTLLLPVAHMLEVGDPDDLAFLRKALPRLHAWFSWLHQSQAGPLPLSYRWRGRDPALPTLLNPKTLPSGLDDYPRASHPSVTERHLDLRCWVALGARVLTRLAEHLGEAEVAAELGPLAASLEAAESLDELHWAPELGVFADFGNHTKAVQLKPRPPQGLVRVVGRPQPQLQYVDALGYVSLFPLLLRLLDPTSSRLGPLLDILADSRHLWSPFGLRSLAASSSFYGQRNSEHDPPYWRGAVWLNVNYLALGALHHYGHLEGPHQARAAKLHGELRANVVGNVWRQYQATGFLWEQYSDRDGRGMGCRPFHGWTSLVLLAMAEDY
# [3] = system: mouse models with impaired GSL degradation; settings: in vivo; cited from earlier work
# epididymal spermatozoa = test: Fluorescence microscopy of epididymal spermatozoa (nuclear morphology, acrosomal antigens); assay type: in vivo, mouse
# Procedure: Fluorescence microscopy—For immunofluorescence, freshly exised vasa deferentia were stripped and caudae epididymides were dissociated with forceps in M2 medium, and spermatozoa were allowed to disperse for 15 min. The resultant suspensions were used to prepare smears on glass slides. After drying in air for 1 hr, cells were fixed in methanol for 2 min., dried and stored at room temperature or 4° C. for one to five days. Before immunostaining smears were immersed in methanol for 5 min., dried, and wetted in PBS containing 0.5% BSA and 0.15 M glycine (PBG). Slides were stained with monoclonal antibodies, either Mab18.6 (1:20 in PBG (Moore, H. D., Smith, C. A., Hartman, T. D. & Bye, A. P. (1987) Gamete Res 17, 245-9)), anti-sp56 (1:67 in PBG, clone 7C5, QED Bioscience (Cheng, A., Le, T., Palacios, M., Bookbinder, L. H., Wassarman, P. M., Suzuki, F. & Bleil, J. D. (1994) J Cell Biol 125, 867-78), and goat anti-mouse immunoglobulins γ and light chains-specific fluorescein isothiocyanate-conjugate (Ortho) according to van Dongen et al. (van Dongen, J. M., Willemsen, R., Ginns, E. I., Sips, H. j., Tager, J. M., Barranger, J. A. & Reuser, A. J. (1985) Eur J Cell Biol 39, 179-189.) Following immunostaining, nuclei were stained for 2 min in 5 μg/ml Hoechst 33342 (Molecular Probes); slides were rinsed in distilled water, and mounted with Vectashield (Vector). Fluorescent probes were examined using an Olympus BX50 microscope equipped with a Princeton Instruments CCD camera. Images were aquired, false-coloured, and overlaid with Metamorph v3.5 software, and further processed with Adobe Photoshop.
# [4] = 5 mg/kg per day, five weeks in diet
# [5] = 2400 mg/kg per day, taken off the drug after five weeks of treatment
# [6] = highest dose (2400 mg/kg/day), n=10
smiles,measurement,setting,value
"CCCCN1C[C@H](O)[C@@H](O)[C@H](O)[C@H]1CO [NB-DNJ, N-butyldeoxynojirimycin]",fertility,"male C57BL/6 mice; 1 mg/kg per day, five weeks in diet",did not affect
same,fertility (pregnancies per male),male C57BL/6 mice; [4],reduced their fertility
same,litter size,male C57BL/6 mice; [4],reduced
same,fertility,"male C57BL/6 mice; 15 mg/kg per day, five weeks in diet",completely infertile
same,"fertility, capacity to sire normal-sized litters","male C57BL/6 mice; 2400 mg/kg per day oral, one or two weeks of treatment, six-week old males",this capacity was maintained
same,"infertility, length of treatment needed","male C57BL/6 mice; 2400 mg/kg per day oral, weekly increments",infertile after at least three weeks
same,litter size after withdrawal,male C57BL/6 mice; [5],normal-sized litters
same,regain of fertility after withdrawal,male C57BL/6 mice; [5],regained fertility in the fourth week
same,fertility,"male C57BL/6 mice; 13 week old males, 2400 mg/kg per day for five weeks",complete sterility
same,frequency of post-coital vaginal mucous plugs (mating behavior),"male C57BL/6 mice; NB-DNJ dose range, five weeks in diet",not affected
same,dose required for induced infertility,"male C57BL/6 mice; oral, male mice",at least 15 mg/kg/day
same,"serum testosterone, FSH, LH and testicular testosterone","[1]; 2400 mg/kg/day, p<0.001",significant reduction
same,"serum testosterone, FSH, LH and testicular testosterone","[1]; 15, 150 or 1200 mg/kg/day",did not change
same,weights of testes and epididymal compartments,[2]; 1200 and 2400 mg/kg/day,decreased proportionally to body weight
same,combined cauda epididymis/vas deferens weight,[2]; [6],43±7 % of control
same,whole body weight,[2]; [6],60±5 % of control
same,body or gonad weights,"[2]; low dose, 15-150 mg/kg/day",did not affect
same,inhibition of alpha-glucosidase 1,alpha-glucosidase 1,potent inhibitor
same,therapeutic effect,[3],therapeutically effective
same,fraction of spermatozoa stained with Mab18.6 or anti-sp56 (acrosomal antigens),epididymal spermatozoa; 15 mg/kg/day,below 10%
same,nuclear shape of cauda epididymal sperm cells,epididymal spermatozoa; 150 mg/kg/day (FIGS. 4D-4F),various abnormally shaped nuclei
same,frequency of antibody staining (acrosomal antigens),epididymal spermatozoa; 1200 mg/kg/day compared with 15-150 mg/kg/day,more frequent
same,frequency of normal nuclear morphology,"epididymal spermatozoa; 1200 mg/kg/day compared with 50-150 mg/kg/day, p<0.01",significantly more often
same,incidence of (near)-normal acrosomal staining among Mab18.6-positive cells,"epididymal spermatozoa; 15 to 1200 mg/kg/day, average, n=3",31±10%
same,percentage of caudal spermatozoa with (near)-normal nuclei,epididymal spermatozoa; minimal dose to achieve complete infertility,below 6%
